Results taken from patent EP4768499A1, “MACROCYCLIC PEPTIDE COMPOUND HAVING CELL MEMBRANE PERMEABILITY AND METABOLIC STABILITY, AND LIBRARY CONTAINING SAME” (Chugai Seiyaku Kabushiki Kaisha, priority 2023, dated 2025).
Starred links: 1 amine or outer side, 2 acyl side, 3 side chain; linkers in the order of their positions; H or OH if unused. Positions of bridges follow the written chain, without caps; N, C: chain ends. Non-standard residues stand in square brackets, D forms with d. Residues, ends and D or L forms follow the SMILES beside them. *: point of attachment. NMeF = CN[C@@H](Cc1ccccc1)C(=O)O; NMeGABA = CN(CCCC(=O)[*:2])[*:1]; NMeI = CC[C@H](C)[C@H](NC)C(=O)O; NMeT = CN[C@H](C(=O)O)[C@@H](C)O; hPhe = N[C@@H](CCc1ccccc1)C(=O)O; NMeβAla = CN(CCC(=O)[*:2])[*:1]; NMeL = CN[C@@H](CC(C)C)C(=O)O; dNMeV = CN[C@@H](C(=O)O)C(C)C; NMeV = CN[C@H](C(=O)O)C(C)C; d(β3hA) = C[C@@H](N)CC(=O)O; NMeAbu = CC[C@H](NC)C(=O)O; NMeA = CN[C@@H](C)C(=O)O; Piperidide = C1CCN(*)CC1; dNMeA = CN[C@H](C)C(=O)O; Abu = CC[C@H](N)C(=O)O; NBuGly = CCCCNCC(=O)O; Sar = CNCC(=O)O; tBu = CC(C)(C)*

Assays:
[1] = Membrane permeability test using Caco-2 cells with preincubation; format: in vitro ADME; details: Caco-2; preincubation 20 to 24 hours; Apical FaSSIF/HBSS pH 6.0, Basal HBSS 4% BSA pH 7.4; 180 minutes; read-out: Caco2 Papp
Caco-2 cells = assay: as above; format: in vitro ADME; details: Caco-2 cells, preincubation 20 to 24 hours; apical FaSSIF/HBSS 1% DMSO pH 6.0, basal HBSS 4% BSA pH 7.4; basal sample at 180 minutes
[2] = Metabolic stability test: liver microsomal stability assay; format: in vitro ADME, mouse; details: mouse liver microsomes 0.5 mg protein/mL, compound 1 µM; for microsomal CLint at 1 µM: male, pH 7.4, presence of NADPH, read-out: Mouse Hepatic Microsome CLh,int NADPH(+); for Mouse Hepatic Microsome CLh,int NADPH(-): absence of NADPH

| SMILES | Papp A→B [1] | Caco2 Papp (10^-6 cm/sec) (Caco-2 cells) | microsomal CLint at 1 µM [2] | Mouse Hepatic Microsome CLh,int NADPH(-) [2] |
| --- | --- | --- | --- | --- |
| CC[C@@H]1NC(=O)[C@@H]2CCCN2C(=O)[C@H](C(C)C)NC(=O)[C@H](Cc2ccccc2)N(C)C(=O)[C@H](C)N(C)C(=O)[C@H](CC(C)C)N(C)C(=O)[C@H]([C@@H](C)O)N(C)C(=O)[C@H](CC(C)C)N(C)C(=O)[C@H](CC)NC(=O)[C@H](Cc2ccccc2)N(C)C(=O)CN(C)C(=O)C[C@@H](C(=O)N2CCCCC2)NC(=O)[C@H](C(C)C)N(C)C1=O [pd122] ([Sar][NMeF][Abu][NMeL][NMeT][NMeL][NMeA][NMeF]VP[Abu][NMeV]D-Piperidide; lactam N-13) | 0.06 ×10⁻⁶ cm/s | 0.06 10^-6 cm/sec | 11.1 µL/min/mg | 9.6 µL/min/mg Protein |
| CCCCN1CC(=O)N(C)[C@@H](CC(C)C)C(=O)N[C@@H](COC(C)(C)C)C(=O)N(C)[C@@H](Cc2ccccc2)C(=O)N(C)[C@@H](C)C(=O)N(C)[C@@H](C(C)C)C(=O)N[C@H](C(=O)N2CCCCC2)CC(=O)N(C)[C@H](C(C)C)C(=O)N(C)[C@@H](Cc2ccccc2)C(=O)N2CCC[C@H]2C(=O)N(C)[C@@H](C(C)C)C(=O)N(C)[C@@H](CC(C)C)C(=O)N[C@@H]([C@@H](C)O)C1=O [pd123] ([dNMeV][NMeF]P[NMeV][NMeL]T[NBuGly][NMeL]S(tBu)[NMeF][NMeA][NMeV]D-Piperidide; lactam N-13) | 0.56 ×10⁻⁶ cm/s | 0.56 10^-6 cm/sec | 31 µL/min/mg | 36.0 µL/min/mg Protein |
| CC[C@H](C)[C@H]1C(=O)N(C)[C@@H]([C@@H](C)O)C(=O)N(C)[C@@H](CC)C(=O)N(C)[C@@H](CC(C)C)C(=O)N2CCC[C@H]2C(=O)N[C@H](C(=O)N2CCCCC2)CC(=O)N(C)[C@@H](C)C(=O)N[C@@H](CC(C)C)C(=O)N(C)[C@@H](CC(C)C)C(=O)N(C)[C@@H](C)C(=O)N2CCC[C@H]2C(=O)N[C@@H](CCc2ccccc2)C(=O)N(C)[C@@H](CC(C)C)C(=O)N1C [pd125] ([NMeA]L[NMeL][NMeA]P[hPhe][NMeL][NMeI][NMeT][NMeAbu][NMeL]PD-Piperidide; lactam N-13) | 0.13 ×10⁻⁶ cm/s | 0.13 10^-6 cm/sec | 16.7 µL/min/mg | 18.1 µL/min/mg Protein |
| CC[C@H]1C(=O)N(C)CC(=O)N[C@@H]([C@@H](C)O)C(=O)N(C)[C@@H](CC(C)C)C(=O)N[C@@H](CC(C)C)C(=O)N(C)[C@@H](Cc2ccccc2)C(=O)N(C)[C@@H](C(C)C)C(=O)N2CCC[C@H]2C(=O)N(C)[C@@H](C)C(=O)N(C)[C@@H](C(C)C)C(=O)N[C@H](C(=O)N2CCCCC2)CC(=O)N(C)[C@@H](CC(C)C)C(=O)N(C)[C@@H](Cc2ccccc2)C(=O)N1C [pd126] ([NMeL][NMeF][NMeAbu][Sar]T[NMeL]L[NMeF][NMeV]P[NMeA][NMeV]D-Piperidide; lactam N-13) | 0.88 ×10⁻⁶ cm/s | 0.88 10^-6 cm/sec | 23.3 µL/min/mg | 18.2 µL/min/mg Protein |
| CC[C@H](C)[C@@H]1NC(=O)[C@H](CC(C)C)N(C)C(=O)[C@H](CC(C)C)NC(=O)[C@H](C)N(C)C(=O)C[C@@H](C)NC(=O)[C@H](CC(C)C)NC(=O)[C@H](CC(C)C)N(C)C(=O)CN(C)C(=O)[C@H](C(C)C)NC(=O)[C@H]([C@@H](C)CC)N(C)C(=O)[C@H](CC(C)C)N(C)C(=O)[C@H](C)NC(=O)[C@H](Cc2ccccc2)N(C)C1=O [pd127] (cyclo(A[NMeL][NMeI]V[Sar][NMeL]L[d(β3hA)][NMeA]L[NMeL]I[NMeF])) | 0.36 ×10⁻⁶ cm/s | 0.36 10^-6 cm/sec | 41.6 µL/min/mg | 28.0 µL/min/mg Protein |
| CC[C@@H]1NC(=O)CN(C)C(=O)[C@H]([C@@H](C)O)NC(=O)[C@H](CC(C)C)N(C)C(=O)[C@H](C(C)C)NC(=O)[C@H](Cc2ccccc2)N(C)C(=O)[C@H](C)N(C)C(=O)[C@@H](C)NC(=O)C[C@@H](C)NC(=O)[C@H](C(C)C)N(C)C(=O)[C@H](Cc2ccccc2)N(C)C(=O)[C@H](COC(C)(C)C)NC(=O)[C@H](CC(C)C)N(C)C1=O [pd128] (cyclo([Abu][NMeL]S(tBu)[NMeF][NMeV][d(β3hA)][dA][NMeA][NMeF]V[NMeL]T[Sar])) | 0.05 ×10⁻⁶ cm/s | 0.05 10^-6 cm/sec | 18 µL/min/mg | 11.3 µL/min/mg Protein |
| CC[C@@H]1NC(=O)[C@H](CC(C)C)N(C)C(=O)[C@H]([C@@H](C)CC)NC(=O)CN(C)C(=O)C[C@@H](C)NC(=O)[C@H](C(C)C)N(C)C(=O)[C@H](COC(C)(C)C)NC(=O)[C@H](CC(C)C)N(C)C(=O)[C@H](Cc2ccccc2)N(C)C(=O)[C@H](CC(C)C)NC(=O)CN(C)C(=O)[C@H]([C@@H](C)O)NC(=O)[C@H](CC(C)C)N(C)C1=O [pd129] (cyclo([Abu][NMeL]T[Sar]L[NMeF][NMeL]S(tBu)[NMeV][d(β3hA)][Sar]I[NMeL])) | 0.71 ×10⁻⁶ cm/s | 0.71 10^-6 cm/sec | 76.5 µL/min/mg | 19.7 µL/min/mg Protein |
| CC[C@H]1C(=O)N(C)[C@@H](C)C(=O)N(C)[C@@H](C(C)C)C(=O)N[C@H](C)CC(=O)N[C@H](C(C)C)C(=O)N(C)[C@@H](CC(C)C)C(=O)N[C@@H](CC(C)C)C(=O)N(C)[C@@H](C(C)C)C(=O)N(C)[C@@H](CC(C)C)C(=O)N(C)CC(=O)N[C@@H]([C@@H](C)O)C(=O)N(C)[C@@H](Cc2ccccc2)C(=O)N[C@@H](COC(C)(C)C)C(=O)N1C [pd131] (cyclo(L[NMeV][NMeL][Sar]T[NMeF]S(tBu)[NMeAbu][NMeA][NMeV][d(β3hA)][dV][NMeL])) | 2.18 ×10⁻⁶ cm/s | 2.18 10^-6 cm/sec | 17.8 µL/min/mg | 13.5 µL/min/mg Protein |
| CC[C@H](C)[C@@H]1NC(=O)[C@@H]2CCCN2C(=O)[C@H](C(C)C)N(C)C(=O)[C@@H](C)N(C)C(=O)C[C@@H](C)NC(=O)[C@H](C(C)C)N(C)C(=O)[C@H](Cc2ccccc2)N(C)C(=O)[C@H](COC(C)(C)C)NC(=O)[C@H](CC(C)C)N(C)C(=O)[C@H](C)N(C)C(=O)[C@H](CC(C)C)N(C)C(=O)[C@H]([C@@H](C)O)NC(=O)[C@H](Cc2ccccc2)N(C)C1=O [pd136] (cyclo(I[NMeF]T[NMeL][NMeA][NMeL]S(tBu)[NMeF][NMeV][d(β3hA)][dNMeA][NMeV]P)) | 0.53 ×10⁻⁶ cm/s | 0.53 10^-6 cm/sec | 27.2 µL/min/mg | 28.8 µL/min/mg Protein |

The remaining lines, values ahead:

| Papp A→B [1] | Caco2 Papp (10^-6 cm/sec) (Caco-2 cells) | microsomal CLint at 1 µM [2] | Mouse Hepatic Microsome CLh,int NADPH(-) [2] | SMILES |
| --- | --- | --- | --- | --- |
| 0.13 ×10⁻⁶ cm/s | 0.13 10^-6 cm/sec | 16.9 µL/min/mg | 16.6 µL/min/mg Protein | CC[C@H](C)[C@H]1C(=O)N2CCC[C@H]2C(=O)N(C)[C@@H](C(C)C)C(=O)N(C)[C@@H](Cc2ccccc2)C(=O)N(C)[C@@H](C)C(=O)N(C)[C@@H](CC(C)C)C(=O)N[C@@H]([C@@H](C)O)C(=O)N(C)[C@@H](C)C(=O)N[C@@H](CCc2ccccc2)C(=O)N(C)[C@@H](CC(C)C)C(=O)N[C@H](C(=O)N2CCCCC2)CC(=O)N(C)CCCC(=O)N(C)[C@@H](CC(C)C)C(=O)N1C [pd124] ([NMeGABA][NMeL][NMeI]P[NMeV][NMeF][NMeA][NMeL]T[NMeA][hPhe][NMeL]D-Piperidide; lactam N-13) |
| 3.88 ×10⁻⁶ cm/s | 3.88 10^-6 cm/sec | 22.7 µL/min/mg | 6.8 µL/min/mg Protein | CC[C@H](C)[C@@H]1NC(=O)[C@H](Cc2ccccc2)N(C)C(=O)[C@H](C(C)C)NC(=O)[C@@H](C)N(C)C(=O)C[C@@H](C)NC(=O)[C@H](C(C)C)N(C)C(=O)[C@H](Cc2ccccc2)N(C)C(=O)[C@H](COC(C)(C)C)NC(=O)[C@H](CC(C)C)N(C)C(=O)[C@H](C)N(C)C(=O)[C@@H]2CCCN2C(=O)[C@H]([C@@H](C)O)NC(=O)[C@H](CC(C)C)N(C)C1=O [pd130] (cyclo(I[NMeL]TP[NMeA][NMeL]S(tBu)[NMeF][NMeV][d(β3hA)][dNMeA]V[NMeF])) |
| 0.36 ×10⁻⁶ cm/s | 0.36 10^-6 cm/sec | 16.2 µL/min/mg | 7.7 µL/min/mg Protein | CC[C@H](C)[C@@H]1NC(=O)[C@H](C)N(C)C(=O)[C@H]([C@@H](C)O)N(C)C(=O)[C@H](CC(C)C)N(C)C(=O)[C@H](C(C)C)NC(=O)[C@H](Cc2ccccc2)N(C)C(=O)[C@H](Cc2ccccc2)N(C)C(=O)[C@H](C)NC(=O)[C@H](CC)N(C)C(=O)[C@H]([C@@H](C)CC)NC(=O)CCCN(C)C(=O)C[C@@H](C)NC(=O)[C@H](C(C)C)N(C)C1=O [pd132] (cyclo(A[NMeF][NMeF]V[NMeL][NMeT][NMeA]I[NMeV][d(β3hA)][NMeGABA]I[NMeAbu])) |
| 0.53 ×10⁻⁶ cm/s | 0.53 10^-6 cm/sec | 25.6 µL/min/mg | 23.6 µL/min/mg Protein | CC[C@H](C)[C@@H]1NC(=O)[C@H](CCc2ccccc2)NC(=O)[C@H](CC(C)C)N(C)C(=O)[C@H](C)N(C)C(=O)[C@H](Cc2ccccc2)N(C)C(=O)[C@@H]2CCCN2C(=O)[C@H]([C@@H](C)CC)NC(=O)[C@H](CC(C)C)N(C)C(=O)CCN(C)C(=O)C[C@@H](C)NC(=O)[C@H](CC(C)C)N(C)C(=O)[C@H]([C@@H](C)O)NC(=O)[C@H](C)N(C)C1=O [pd133] (cyclo(I[NMeA]T[NMeL][d(β3hA)][NMeβAla][NMeL]IP[NMeF][NMeA][NMeL][hPhe])) |
| 0.75 ×10⁻⁶ cm/s | 0.75 10^-6 cm/sec | 38.5 µL/min/mg | 11.4 µL/min/mg Protein | CC[C@H](C)[C@@H]1NC(=O)[C@H](CC(C)C)N(C)C(=O)[C@H](C)N(C)C(=O)[C@H](C)N(C)C(=O)C[C@@H](C)NC(=O)[C@H](CC(C)C)NC(=O)[C@H](CC(C)C)N(C)C(=O)CN(C)C(=O)[C@H]([C@@H](C)O)NC(=O)[C@H]([C@@H](C)CC)N(C)C(=O)[C@H](CC(C)C)N(C)C(=O)[C@H](C(C)C)NC(=O)[C@H](Cc2ccccc2)N(C)C1=O [pd134] (cyclo(I[NMeF]V[NMeL][NMeI]T[Sar][NMeL]L[d(β3hA)][NMeA][NMeA][NMeL])) |
